Data taken from patent US20250002473A1, “QUINOXALINE DERIVED SULFONAMIDES WITH EGFR DEGRADATION ACTIVITIES AND THEIR USES THEREOF” (Accutar Biotechnology Inc., priority 2023, published 2025).

How the values were obtained:
Assay type in all cases: cell-based
[1] = test system: BaF3_DTC (EGFR_Exon19del/T790M/C797S); assay: EGFR degradation assay (western blot), BaF3_DTC cells; settings: BaF3_DTC cells (EGFR_Exon19del/T790M/C797S), compounds 24 h, western blot; read-out: BaF3_DTC DC50
Method: (§1) A431 (EGFR_WT), NCl-H2073 (EGFR_WT), NCl-H292 (EGFR_WT), BaF3_YVAM (Her2_A775insYVAM), BaF3_SVD (EGFR_D770insSVD), BaF3_ASV (EGFR_A776inASV), or BaF3_DTC (EGFR_Exon19del/T790M/C797S) cells were seeded in a 24-well plate at a density of 4×10^5 cells per well for EGFR WT cells and 8× cells per well for EGFR or Her2 mutant cells, and the plates were incubated overnight. The cells were treated with the desired compounds for 24 h. The culture medium was removed, and 100 μL of RIPA buffer (Beyotime, P0013B) containing 1% Protease Inhibitor Cocktail (Bimake, B14001), 1% Phosphatase Inhibitor Cocktail 2 (Sigma, P5726), and 1% Phosphatase Inhibitor Cocktail 3 (Sigma, P0044) were added to lyse the cells. Then, the cell lysates were transferred to 1.5 mL microcentrifuge tubes and centrifuged at 12,000 rpm and 4° C. for 30 min. The supernatants were transferred into new tubes, and the protein concentration was determined using the BCA protein quantification method. All samples were diluted to the same concentration using RIPA buffer, loading buffer was added, samples were denatured, and 15 μg of protein per lane was loaded onto a SurePAGE 4-20% Bis-Tris gel. Samples were separated via electrophoresis in MOPS running buffer at 180 V for 100 min. Then, proteins were transferred onto PVDF membranes using the MiniBlot™ Electrophoretic Transfer Cell Device (Beyotime, E6050). The membrane was blocked using block buffer (LI-COR 927-60001) to prevent non-specific binding. The membrane was incubated with primary antibodies (1:500 dilution, EGFR-CST4405, 1:2000 dilution, Tubulin-ABclonal #AC021) at 4° C. overnight. The membrane was washed three times with 1× TBST buffer for 15 min each. The membrane was incubated with secondary antibodies IRDye 680RD Goat anti-Rabbit IgG Secondary Antibody (1:2000 dilution, LI-COR 926-68071) and IRDye 800CW Goat anti-Mouse IgG Secondary Antibody (1:2000 dilution, LI-COR 926-32210). Finally, the membrane was washed again with 1× TBST buffer 3 times. Fluorescence was detected using the Odyssey CLx Imaging System, and the data were analyzed with Empiria Studio Software and GraphPad Prism 9. Table 4 and Table 5 list the degradation results, where the degradation potency is represented by DC50, the concentration of compounds to cause the degradation of 50% of the corresponding proteins. FIGS. 45-49 show western blots illustrating the EGFR degradative activity of exemplary Compound of the present disclosure and a comparator Compound A in different cell lines 24 h after administration. The Compound referred herein as Compound A is disclosed in WO 2022/171123 A1 (see, compound 133, page 46; published Aug. 18, 2022). WO 2022/171123 A1 discloses phosphine oxide derived molecules with EGFR degradation activity.

A431 (EGFR_WT) = biological target: T1, A431 (EGFR_WT) (Homo sapiens, UniProt P00533); assay: EGFR degradation assay (western blot), A431 cells; settings: compounds 24 h, western blot, read-out: A431 DC50
T1 construct: endogenous in cells; host or cells: A431, NCI-H2073, NCI-H292
T1 sequence (P00533 25-1210): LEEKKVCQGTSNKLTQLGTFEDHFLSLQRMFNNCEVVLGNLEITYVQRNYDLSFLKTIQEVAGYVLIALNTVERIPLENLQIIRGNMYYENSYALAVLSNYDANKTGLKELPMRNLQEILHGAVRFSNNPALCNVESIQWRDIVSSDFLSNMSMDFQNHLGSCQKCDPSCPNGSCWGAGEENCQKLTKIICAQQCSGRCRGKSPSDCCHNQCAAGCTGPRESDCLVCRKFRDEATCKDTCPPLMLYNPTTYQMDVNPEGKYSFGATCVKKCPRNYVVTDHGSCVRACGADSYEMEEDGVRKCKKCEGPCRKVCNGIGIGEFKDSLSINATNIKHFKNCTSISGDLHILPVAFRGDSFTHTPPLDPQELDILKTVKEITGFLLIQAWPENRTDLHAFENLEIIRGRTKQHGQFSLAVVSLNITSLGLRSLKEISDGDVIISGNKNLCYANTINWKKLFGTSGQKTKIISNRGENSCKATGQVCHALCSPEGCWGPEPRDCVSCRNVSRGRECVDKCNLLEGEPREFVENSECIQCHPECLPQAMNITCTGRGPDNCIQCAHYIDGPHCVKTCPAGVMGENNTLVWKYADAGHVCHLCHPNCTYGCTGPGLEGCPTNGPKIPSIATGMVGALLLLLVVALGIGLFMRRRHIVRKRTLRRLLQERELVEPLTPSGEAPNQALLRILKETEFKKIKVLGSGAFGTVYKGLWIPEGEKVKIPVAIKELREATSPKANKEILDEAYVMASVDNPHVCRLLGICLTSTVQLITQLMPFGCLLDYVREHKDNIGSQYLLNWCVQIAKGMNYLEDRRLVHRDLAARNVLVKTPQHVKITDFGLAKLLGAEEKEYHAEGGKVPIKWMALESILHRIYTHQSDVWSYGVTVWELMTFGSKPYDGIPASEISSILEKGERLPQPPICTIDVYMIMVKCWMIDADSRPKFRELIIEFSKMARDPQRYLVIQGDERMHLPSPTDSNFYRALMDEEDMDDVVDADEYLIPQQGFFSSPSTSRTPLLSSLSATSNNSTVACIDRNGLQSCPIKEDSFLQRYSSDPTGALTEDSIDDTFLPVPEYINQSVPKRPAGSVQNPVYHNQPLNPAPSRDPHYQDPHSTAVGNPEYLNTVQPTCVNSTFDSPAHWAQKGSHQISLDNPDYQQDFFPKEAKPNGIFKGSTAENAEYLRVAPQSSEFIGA
Method: as §1

BaF3_ASV = assay: Cell growth inhibition assay (CellTiter-Glo), BaF3_ASV; settings: 72 h; Table 6; BaF3_ASV cells, three days, CellTiter-Glo; read-out: BaF3_ASV GI50
Method: (§2) Cells were seeded in a 96-well plate (Corning 3610) with 90 μL of culture medium per well, and plates were incubated at 37° C. overnight. A 1,000× DMSO stock solution of the desired compound was prepared the following day. A compound dilution plate was prepared by diluting the stock solution 1:100 in the corresponding cell culture medium, 10 μL of the diluted compound solution was added to each 96-well plate well containing the seeded cells. […] The content of the wells was mixed by shaking continuously for 10 min, and luminescence was measured using Envision (PerkinElmer). The data were analyzed with GraphPad Prism 9 (see FIG. 50).
(§3) Table 6, Table 7, and Table 8 list the cell growth inhibition results, where Gls0 represents the compound concentration to cause 50% cell growth inhibition in comparison with DMSO.

A431 = assay: Cell growth inhibition assay (CellTiter-Glo), A431; settings: Homo sapiens, A-431, 72 h, Table 6; A431 cells, three days, CellTiter-Glo; read-out: A431 GI50
Method: as §2, §3

[2] = biological target: T2, BaF3_ASV (EGFR_A776inASV) (Homo sapiens, UniProt P00533, DUP767-769); assay: EGFR degradation assay (western blot), BaF3_ASV cells; settings: BaF3_ASV cells, compounds 24 h, western blot; read-out: BaF3_ASV DC50
T2 construct: expressed in transfected cells; host or cells: Ba/F3 (engineered)
T2 sequence (P00533 with tags, fused parts or gaps DUP767-769): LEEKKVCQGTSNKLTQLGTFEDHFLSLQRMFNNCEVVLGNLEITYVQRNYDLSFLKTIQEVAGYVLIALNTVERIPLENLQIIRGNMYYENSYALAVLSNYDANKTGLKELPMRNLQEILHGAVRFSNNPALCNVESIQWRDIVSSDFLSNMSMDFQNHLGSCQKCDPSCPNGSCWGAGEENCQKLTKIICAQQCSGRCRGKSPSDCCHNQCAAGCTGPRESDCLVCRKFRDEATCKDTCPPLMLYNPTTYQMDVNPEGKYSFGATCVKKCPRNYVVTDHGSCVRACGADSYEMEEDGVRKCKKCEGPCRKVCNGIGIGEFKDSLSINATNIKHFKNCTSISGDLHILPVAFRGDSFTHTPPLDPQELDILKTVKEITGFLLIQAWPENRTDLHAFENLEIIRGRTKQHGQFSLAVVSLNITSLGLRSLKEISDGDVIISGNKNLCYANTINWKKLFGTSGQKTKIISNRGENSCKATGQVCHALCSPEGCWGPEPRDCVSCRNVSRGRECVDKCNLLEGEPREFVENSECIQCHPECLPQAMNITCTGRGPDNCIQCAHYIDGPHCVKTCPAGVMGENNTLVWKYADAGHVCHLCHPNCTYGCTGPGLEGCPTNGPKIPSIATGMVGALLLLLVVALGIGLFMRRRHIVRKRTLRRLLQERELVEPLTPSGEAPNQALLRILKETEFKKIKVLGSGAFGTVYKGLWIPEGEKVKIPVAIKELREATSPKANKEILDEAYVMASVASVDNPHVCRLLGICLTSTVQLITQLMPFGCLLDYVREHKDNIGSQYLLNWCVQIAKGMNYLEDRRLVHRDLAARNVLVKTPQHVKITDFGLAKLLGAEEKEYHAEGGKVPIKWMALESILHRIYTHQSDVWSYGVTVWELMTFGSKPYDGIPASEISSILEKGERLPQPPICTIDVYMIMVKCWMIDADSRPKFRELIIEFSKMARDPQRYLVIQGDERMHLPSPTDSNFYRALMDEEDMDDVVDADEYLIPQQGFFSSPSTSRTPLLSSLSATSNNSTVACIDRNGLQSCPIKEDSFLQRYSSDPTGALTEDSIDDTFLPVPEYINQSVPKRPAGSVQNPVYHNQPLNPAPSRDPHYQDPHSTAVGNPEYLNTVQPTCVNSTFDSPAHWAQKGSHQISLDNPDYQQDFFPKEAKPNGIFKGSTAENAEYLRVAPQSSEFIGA
Method: as §1

BaF3_DTC = assay: Cell growth inhibition assay (CellTiter-Glo), BaF3_DTC; settings: 72 h; Table 6; BaF3_DTC cells, three days, CellTiter-Glo; read-out: BaF3_DTC GI50
Method: as §2, §3

Compound	DC50 [1] [nM]	DC50 (A431 (EGFR_WT)) [nM]	GI50 (BaF3_ASV) [nM]	GI50 (A431) [nM]	DC50 [2] [nM]	GI50 (BaF3_DTC) [nM]
CCc1cc(Nc2ncc(Br)c(Nc3ccc4nccnc4c3NS(C)(=O)=O)n2)c(OC)cc1N1CCC(N2CCN(CC3CCN(c4ccc5c(c4)C(=O)N(C4CCC(=O)NC4=O)C5=O)CC3)CC2)CC1 (stereo not drawn) [Compound 6, N-(6-((5-bromo-2-((4-(4-(4-((1-(2-(2,6-dioxopiperidin-3-yl)-1,3-dioxoisoindolin-5-yl)piperidin-4-yl)methyl)piperazin-1-yl)piperidin-1-yl)-5-ethyl-2-methoxyphenyl)amino)pyrimidin-4-yl)amino)quinoxalin-5-yl)methanesulfonamide]	5.94	> 1000	282	> 1000	289	11.2
CCc1cc(Nc2ncc(Br)c(Nc3ccc4nccnc4c3NS(C)(=O)=O)n2)c(OC)cc1N1CCC(N2CC(CN3CCN(c4ccc5c(c4)CN([C@H]4CCC(=O)NC4=O)C5=O)CC3)C2)CC1 [Compound 62, (S)-N-(6-((5-bromo-2-((4-(4-(3-((4-(2-(2,6-dioxopiperidin-3-yl)-1-oxoisoindolin-5-yl)piperazin-1-yl)methyl)azetidin-1-yl)piperidin-1-yl)-5-ethyl-2-methoxyphenyl)amino)pyrimidin-4-yl)amino)quinoxalin-5-yl)methanesulfonamide]	5.18	–	130	383	75.2	19.3
CCc1cc(Nc2ncc(Br)c(Nc3ccc4nccnc4c3NS(C)(=O)=O)n2)c(OC)cc1N1CCC2(CC1)CN(CC1CCN(c3ccc4c(c3)CN(C3CCC(=O)NC3=O)C4=O)CC1)C2 (stereo not drawn) [Compound 40, N-(6-((5-bromo-2-((4-(2-((1-(2-(2,6-dioxopiperidin-3-yl)-1-oxoisoindolin-5-yl)piperidin-4-yl)methyl)-2,7-diazaspiro[3.5]nonan-7-yl)-5-ethyl-2-methoxyphenyl)amino)pyrimidin-4-yl)amino)quinoxalin-5-yl)methanesulfonamide]	20.8	–	60.2	399	93.8	7.99
CCc1cc(Nc2ncc(Br)c(Nc3ccc4nccnc4c3NS(C)(=O)=O)n2)c(OC)cc1N1CCC(N2CCC(N3CCN(c4ccc5c(c4)CN([C@H]4CCC(=O)NC4=O)C5=O)CC3)CC2)CC1 [Compound 36, (S)-N-(6-((5-bromo-2-((4-(4-(4-(2-(2,6-dioxopiperidin-3-yl)-1-oxoisoindolin-5-yl)piperazin-1-yl)-[1,4′-bipiperidin]-1′-yl)-5-ethyl-2-methoxyphenyl)amino)pyrimidin-4-yl)amino)quinoxalin-5-yl)methanesulfonamide]	1.27	–	77.6	> 1000	102	9.12
CCc1cc(Nc2ncc(Br)c(Nc3ccc4nccnc4c3NS(C)(=O)=O)n2)c(OC)cc1N1CCC(N2CC(N3CCN(c4ccc5c(c4)CN([C@H]4CCC(=O)NC4=O)C5=O)CC3)C2)CC1 [Compound 63, (S)-N-(6-((5-bromo-2-((4-(4-(3-(4-(2-(2,6-dioxopiperidin-3-yl)-1-oxoisoindolin-5-yl)piperazin-1-yl)azetidin-1-yl)piperidin-1-yl)-5-ethyl-2-methoxyphenyl)amino)pyrimidin-4-yl)amino)quinoxalin-5-yl)methanesulfonamide]	12.9	–	40.8	> 1000	18.2	6.23
CCc1cc(Nc2ncc(Br)c(Nc3ccc4nccnc4c3NS(C)(=O)=O)n2)c(OC)cc1N1CCC(CN2CCC3(CC2)CCN(c2ccc4c(c2)CN(C2CCC(=O)NC2=O)C4=O)CC3)CC1 (stereo not drawn) [Compound 54, N-(6-((5-bromo-2-((4-(4-((9-(2-(2,6-dioxopiperidin-3-yl)-1-oxoisoindolin-5-yl)-3,9-diazaspiro[5.5]undecan-3-yl)methyl)piperidin-1-yl)-5-ethyl-2-methoxyphenyl)amino)pyrimidin-4-yl)amino)quinoxalin-5-yl)methanesulfonamide]	13.3	–	31	> 1000	33.5	4.77
CCc1cc(Nc2ncc(Br)c(Nc3ccc4nccnc4c3NS(C)(=O)=O)n2)c(OC)cc1N1CCC(N2CCN(CC3(CN4CCN(c5ccc6c(c5)CN([C@H]5CCC(=O)NC5=O)C6=O)CC4)CC3)CC2)CC1 [Compound 42, (S)-N-(6-((5-bromo-2-((4-(4-(4-((1-((4-(2-(2,6-dioxopiperidin-3-yl)-1-oxoisoindolin-5-yl)piperazin-1-yl)methyl)cyclopropyl)methyl)piperazin-1-yl)piperidin-1-yl)-5-ethyl-2-methoxyphenyl)amino)pyrimidin-4-yl)amino)quinoxalin-5-yl)methanesulfonamide]	> 100	–	105	606	> 1000	86
CCc1cc(Nc2ncc(Br)c(Nc3ccc4nccnc4c3NS(C)(=O)=O)n2)c(OC)cc1N1CCC(N2CCN(CCC3CCN(c4cc(F)c(C5CCC(=O)NC5=O)c(F)c4)CC3)CC2)CC1 (stereo not drawn) [Compound 90, N-(6-((5-bromo-2-((4-(4-(4-(2-(1-(4-(2,6-dioxopiperidin-3-yl)-3,5-difluorophenyl)piperidin-4-yl)ethyl)piperazin-1-yl)piperidin-1-yl)-5-ethyl-2-methoxyphenyl)amino)pyrimidin-4-yl)amino)quinoxalin-5-yl)methanesulfonamide]	38.6	–	89.4	> 1000	135	19.1
CCc1cc(Nc2ncc(Br)c(Nc3ccc4nccnc4c3NS(C)(=O)=O)n2)c(OC)cc1N1CCC2(CCN(CC3CCN(c4ccc5c(c4)CN(C4CCC(=O)NC4=O)C5=O)CC3)CC2)CC1 (stereo not drawn) [Compound 37, N-(6-((5-bromo-2-((4-(9-((1-(2-(2,6-dioxopiperidin-3-yl)-1-oxoisoindolin-5-yl)piperidin-4-yl)methyl)-3,9-diazaspiro[5.5]undecan-3-yl)-5-ethyl-2-methoxyphenyl)amino)pyrimidin-4-yl)amino)quinoxalin-5-yl)methanesulfonamide]	8.6	–	55.7	382	102	7.94
COc1cc(N2CCC(N3CCN(CC4CCN(c5ccc6c(c5)CN(C5CCC(=O)NC5=O)C6=O)CC4)CC3)CC2)c(-c2cnn(C)c2)cc1Nc1ncc(Br)c(Nc2ccc3nccnc3c2NS(C)(=O)=O)n1 (stereo not drawn) [Compound 32, N-(6-((5-bromo-2-((4-(4-(4-((1-(2-(2,6-dioxopiperidin-3-yl)-1-oxoisoindolin-5-yl)piperidin-4-yl)methyl)piperazin-1-yl)piperidin-1-yl)-2-methoxy-5-(1-methyl-1H-pyrazol-4-yl)phenyl)amino)pyrimidin-4-yl)amino)quinoxalin-5-yl)methanesulfonamide]	3.1	–	35.6	214	26	10.9
